# Experiments:
# Vero cells [1] = format: cell-based
# Vero cells [2] = format: cell-based; remark: listed apart in the source
substance,measurement,setting,value
chlorin e6 [free Ce6],"LD50 of photodynamic cell killing, expressed in molar concentration of Ce6",Vero cells [1],1.2 nmol/mL
same,Cell-associated Ce6-specific fluorescence,Vero cells [2],no detectable Ce6-specific fluorescence

# — patent publication US20020086814A1 (priority 2000, published 2002)
